In experiment [1] the test system is Corn Earworm (CEW) (Helicoverpa zea). As to the kind of experiment: Bioassay on corn earworm (CEW), 128-well diet tray assay. In kind it is in vivo. To be noted: Helicoverpa zea; Corn earworm, 50 μg/cm^2; read-out: % Mortality CEW 50 μg/cm^2. The protocol:
(§1) Bioassays on Beet Armyworm (“BAW”) and Corn Earworm (“CEW”)
(§2) Certain molecules disclosed in this document were tested against BAW and CEW using procedures described in the following examples. In the reporting of the results, the “BAW & CEW Rating Table” was used (See Table Section).
Bioassays on CEW (Helicoverpa zea)
Bioassays on CEW were conducted using a 128-well diet tray assay. One to five second instar CEW larvae were placed in each well (3 mL) of the diet tray that had been previously filled with 1 mL of artificial diet to which 50 μg/cm^2 of the test compound (dissolved in 50 μL of 90:10 acetone-water mixture) had been applied (to each of eight wells) and then allowed to dry. Trays were covered with a clear self-adhesive cover and held at 25° C., 14:10 light-dark for five to seven days. Percent mortality was recorded for the larvae in each well; activity in the eight wells was then averaged. The results are indicated in the table entitled “Table 5: Biological Results” (See Table Section).

In experiment [2] the test system is Beet Armyworm (BAW) (Spodoptera exigua). The experiment can be described thus: Bioassay on beet armyworm (BAW), 128-well diet tray assay. In kind it is in vivo. Conditions: Spodoptera exigua; Beet armyworm, 50 μg/cm^2; read-out: % Mortality BAW 50 μg/cm^2. The protocol: as §1, §2
Bioassays on BAW (Spodoptera exigua)
Bioassays on BAW were conducted using a 128-well diet tray assay. One to five second instar BAW larvae were placed in each well (3 mL) of the diet tray that had been previously filled with 1 mL of artificial diet to which 50 μg/cm^2 of the test compound (dissolved in 50 μL of 90:10 acetone-water mixture) had been applied (to each of eight wells) and then allowed to dry. Trays were covered with a clear self-adhesive cover and held at 25° C., 14:10 light-dark for five to seven days. Percent mortality was recorded for the larvae in each well; activity in the eight wells was then averaged. The results are indicated in the table entitled “Table 5: Biological Results” (See Table Section).

As for `CC1S/C(=N\N=C\c2ccc(-c3ncn(-c4ccc(OC(F)(F)F)cc4)n3)cc2)N(c2ccccc2C2CC2)C1=O` (centres unmarked) [Compound 127C], the pest or weed control at 50 µg/cm2, 50 µg/cm2 in experiment [1] and in experiment [2] was 50 to 100% throughout.
Take `CCCc1ccccc1N1C(=O)C(C)S/C1=N\N=C\c1ccc(-c2ncn(-c3ccc(OC(F)(F)F)cc3)n2)cc1` (centres unmarked) [Compound 128C]: the pest or weed control at 50 µg/cm2, 50 µg/cm2 in experiment [1] and in experiment [2] was 50 to 100% throughout.
Consider `CC1S/C(=N\N=C\c2ccc(-c3ncn(-c4ccc(OC(F)(F)F)cc4)n3)cc2)N(c2c(Cl)cccc2Cl)C1=O` (centres unmarked) [Compound 129C], for which the pest or weed control at 50 µg/cm2, 50 µg/cm2 in experiment [1] and in experiment [2] was 50 to 100% throughout.
As to `CC1S/C(=N\N=C\c2ccc(-c3ncn(-c4ccc(OC(F)(F)F)cc4)n3)cc2)N(c2c(F)cccc2F)C1=O` (centres unmarked) [Compound 131C], the pest or weed control at 50 µg/cm2, 50 µg/cm2 in experiment [1] and in experiment [2] was 50 to 100% in each case.
Turning to `CC(C)c1ccccc1N1CCS/C1=N\N=C\c1ccc(-c2ncn(-c3ccc(C(F)(F)F)cc3)n2)cc1` [Compound 134C], the pest or weed control at 50 µg/cm2, 50 µg/cm2 in experiment [1] and in experiment [2] was 50 to 100% in each case.
Take `CCC(C)c1ccccc1N1CCS/C1=N\N=C\c1ccc(-c2ncn(-c3ccc(OC(F)(F)F)cc3)n2)cc1` (centres unmarked) [Compound 135C]: the pest or weed control at 50 µg/cm2, 50 µg/cm2 in experiment [1] and in experiment [2] was 50 to 100% each time.
`CCc1cccc(C)c1N1CCS/C1=N\N=C\c1ccc(-c2ncn(-c3ccc(OC(F)(F)F)cc3)n2)cc1` [Compound 136C]: the pest or weed control at 50 µg/cm2, 50 µg/cm2 in experiment [1] and in experiment [2] was 50 to 100% throughout.
Regarding `COc1ccc(N2CCS/C2=N\N=C\c2ccc(-c3ncn(-c4ccc(OC(F)(F)F)cc4)n3)cc2)c(C)c1` [Compound 137C], the pest or weed control at 50 µg/cm2, 50 µg/cm2 in experiment [1] and in experiment [2] was 50 to 100% each time.
For the compound `Cc1ccccc1N1CCS/C1=N\N=C\c1ccc(-c2ncn(-c3ccc(OC(F)(F)F)cc3)n2)cc1` [Compound 141C], the pest or weed control at 50 µg/cm2, 50 µg/cm2 in experiment [1] and in experiment [2] was 50 to 100% throughout.
Turning to `Fc1cccc(Cl)c1N1CCS/C1=N\N=C\c1ccc(-c2ncn(-c3ccc(OC(F)(F)F)cc3)n2)cc1` [Compound 143C], the pest or weed control at 50 µg/cm2, 50 µg/cm2 in experiment [1] and in experiment [2] was 50 to 100% in each case.
Turning to `FC(F)(F)Oc1ccc(-n2cnc(-c3ccc(/C=N/N=C4\SCCN4c4ccccc4-c4ccccc4)cc3)n2)cc1` [Compound 144C], the pest or weed control at 50 µg/cm2, 50 µg/cm2 in experiment [1] and in experiment [2] was 50 to 100% in each case.
As for `Fc1cccc(F)c1N1CCS/C1=N\N=C\c1ccc(-c2ncn(-c3ccc(OC(F)(F)F)cc3)n2)cc1` [Compound 148C], the pest or weed control at 50 µg/cm2, 50 µg/cm2 in experiment [1] and in experiment [2] was 50 to 100% each time.
As to `FC(F)(F)Oc1ccc(-n2cnc(-c3ccc(/C=N/N=C4\SCCN4c4c(Cl)cccc4C(F)(F)F)cc3)n2)cc1` [Compound 149C], the pest or weed control at 50 µg/cm2, 50 µg/cm2 in experiment [1] and in experiment [2] was 50 to 100% throughout.
For `CC(C)Cc1ccccc1N1CCS/C1=N\N=C\c1ccc(-c2ncn(-c3ccc(OC(F)(F)F)cc3)n2)cc1` [Compound 150C], the pest or weed control at 50 µg/cm2, 50 µg/cm2 in experiment [1] and in experiment [2] was 50 to 100% throughout.
Turning to `FC(F)Oc1ccccc1N1CCS/C1=N\N=C\c1ccc(-c2ncn(-c3ccc(OC(F)(F)F)cc3)n2)cc1` [Compound 152C], the pest or weed control at 50 µg/cm2, 50 µg/cm2 in experiment [1] and in experiment [2] was 50 to 100% throughout.
Regarding `CC1CS/C(=N\N=C\c2ccc(-c3ncn(-c4ccc(OC(F)(F)F)cc4)n3)cc2)N1c1c(F)cccc1F` (centres unmarked) [Compound 159C], the pest or weed control at 50 µg/cm2, 50 µg/cm2 in experiment [1] and in experiment [2] was 50 to 100% throughout.
`CC1CS/C(=N\N=C\c2ccc(-c3ncn(-c4ccc(OC(F)(F)F)cc4)n3)cc2)N1c1c(Cl)cccc1C(F)(F)F` (centres unmarked) [Compound 160C]: the pest or weed control at 50 µg/cm2, 50 µg/cm2 in experiment [1] and in experiment [2] was 50 to 100% in each case.
For the compound `Cc1cc(C)c(N2/C(=N/N=C/c3ccc(-c4ncn(-c5ccc(OC(F)(F)F)cc5)n4)cc3)SCC2C)c(C)c1` (centres unmarked) [Compound 161C], the pest or weed control at 50 µg/cm2, 50 µg/cm2 in experiment [1] and in experiment [2] was 50 to 100% each time.
In the case of `COc1ccc(N2/C(=N/N=C/c3ccc(-c4ncn(-c5ccc(OC(F)(F)F)cc5)n4)cc3)SCC2C)c(C)c1` (centres unmarked) [Compound 162C], the pest or weed control at 50 µg/cm2, 50 µg/cm2 in experiment [1] and in experiment [2] was 50 to 100% throughout.
In the case of `CCC(C)c1ccccc1N1/C(=N/N=C/c2ccc(-c3ncn(-c4ccc(OC(F)(F)F)cc4)n3)cc2)SCC1C` (centres unmarked) [Compound 163C], the pest or weed control at 50 µg/cm2, 50 µg/cm2 in experiment [1] and in experiment [2] was 50 to 100% in each case.
Turning to `CC1CS/C(=N\N=C\c2ccc(-c3ncn(-c4ccc(OC(F)(F)F)cc4)n3)cc2)N1c1ccccc1OC(F)F` (centres unmarked) [Compound 164C], the pest or weed control at 50 µg/cm2, 50 µg/cm2 in experiment [1] and in experiment [2] was 50 to 100% throughout.
For the compound `CC1CS/C(=N\N=C\c2ccc(-c3ncn(-c4ccc(OC(F)(F)F)cc4)n3)cc2)N1c1ccccc1C(C)(C)C` (centres unmarked) [Compound 165C], the pest or weed control at 50 µg/cm2, 50 µg/cm2 in experiment [1] and in experiment [2] was 50 to 100% each time.
`CCC1CS/C(=N\N=C\c2ccc(-c3ncn(-c4ccc(OC(F)(F)F)cc4)n3)cc2)N1c1ccccc1C` (centres unmarked) [Compound 166C]: the pest or weed control at 50 µg/cm2, 50 µg/cm2 in experiment [1] and in experiment [2] was 50 to 100% each time.
Turning to `CCC1CS/C(=N\N=C\c2ccc(-c3ncn(-c4ccc(OC(F)(F)F)cc4)n3)cc2)N1c1c(C)cccc1Cl` (centres unmarked) [Compound 167C], the pest or weed control at 50 µg/cm2, 50 µg/cm2 in experiment [1] and in experiment [2] was 50 to 100% in each case.
As to `CC1CS/C(=N\N=C\c2ccc(-c3ncn(-c4ccc(OC(F)(F)F)cc4)n3)cc2)N1c1ccccc1OC(F)(F)F` (centres unmarked) [Compound 168C], the pest or weed control at 50 µg/cm2, 50 µg/cm2 in experiment [1] and in experiment [2] was 50 to 100% throughout.
For the compound `Cc1cs/c(=N\N=C\c2ccc(-c3ncn(-c4ccc(OC(F)(F)F)cc4)n3)cc2)n1-c1c(Cl)cccc1C(F)(F)F` [Compound 169C], the pest or weed control at 50 µg/cm2, 50 µg/cm2 in experiment [1] and in experiment [2] was 50 to 100% throughout.
Turning to `Cc1cs/c(=N\N=C\c2ccc(-c3ncn(-c4ccc(OC(F)(F)F)cc4)n3)cc2)n1-c1ccccc1OC(F)(F)F` [Compound 170C], the pest or weed control at 50 µg/cm2, 50 µg/cm2 in experiment [1] and in experiment [2] was 50 to 100% in each case.
Consider `Cc1cs/c(=N\N=C\c2ccc(-c3ncn(-c4ccc(OC(F)(F)F)cc4)n3)cc2)n1-c1c(F)cccc1F` [Compound 171C], for which the pest or weed control at 50 µg/cm2, 50 µg/cm2 in experiment [1] and in experiment [2] was 50 to 100% in each case.
As for `COc1cc(C)c(-n2c(C)cs/c2=N\N=C\c2ccc(-c3ncn(-c4ccc(OC(F)(F)F)cc4)n3)cc2)c(C)c1` [Compound 172C], the pest or weed control at 50 µg/cm2, 50 µg/cm2 in experiment [1] and in experiment [2] was 50 to 100% each time.
Take `Cc1cccc(C)c1-n1c(C)cs/c1=N\N=C\c1ccc(-c2ncn(-c3ccc(OC(F)(F)F)cc3)n2)cc1` [Compound 175C]: the pest or weed control at 50 µg/cm2, 50 µg/cm2 in experiment [1] and in experiment [2] was 50 to 100% in each case.
As to `Cc1cs/c(=N\N=C\c2ccc(-c3ncn(-c4ccc(OC(F)(F)F)cc4)n3)cc2)n1-c1ccccc1C(C)C` [Compound 176C], the pest or weed control at 50 µg/cm2, 50 µg/cm2 in experiment [1] and in experiment [2] was 50 to 100% throughout.
As for `CC(C)c1ccccc1N1CCCS/C1=N\N=C\c1ccc(-c2ncn(-c3ccc(OC(F)(F)F)cc3)n2)cc1` [Compound 177C], the pest or weed control at 50 µg/cm2, 50 µg/cm2 in experiment [1] and in experiment [2] was 50 to 100% throughout.
As to `CC(C)c1ccccc1N1CCCS/C1=N\N=C\c1ccc(-c2ncn(-c3ccc(C(F)(F)F)cc3)n2)cc1` [Compound 179C], the pest or weed control at 50 µg/cm2, 50 µg/cm2 in experiment [1] and in experiment [2] was 50 to 100% each time.
For the compound `CCC(C)c1ccccc1N1CCCS/C1=N\N=C\c1ccc(-c2ncn(-c3ccc(OC(F)(F)F)cc3)n2)cc1` (centres unmarked) [Compound 183C], the pest or weed control at 50 µg/cm2, 50 µg/cm2 in experiment [1] and in experiment [2] was 50 to 100% each time.
Turning to `Cc1cc(C)c(N2CCCS/C2=N\N=C\c2ccc(-c3ncn(-c4ccc(OC(F)(F)F)cc4)n3)cc2)c(C)c1` [Compound 184C], the pest or weed control at 50 µg/cm2, 50 µg/cm2 in experiment [1] and in experiment [2] was 50 to 100% in each case.
Regarding `CCc1ccccc1N1CCCS/C1=N\N=C\c1ccc(-c2ncn(-c3ccc(OC(F)(F)F)cc3)n2)cc1` [Compound 185C], the pest or weed control at 50 µg/cm2, 50 µg/cm2 in experiment [1] and in experiment [2] was 50 to 100% throughout.
In the case of `FC(F)(F)Oc1ccc(-n2cnc(-c3ccc(/C=N/N=C4\SCCCN4c4c(Cl)cccc4Cl)cc3)n2)cc1` [Compound 187C], the pest or weed control at 50 µg/cm2, 50 µg/cm2 in experiment [1] and in experiment [2] was 50 to 100% in each case.

Values taken from patent US9018388B2, “Pesticidal compositions and processes related thereto” (Dow AgroSciences LLC, priority 2012, dated 2015).
